Laboratory results reported in ChEMBL document CHEMBL1914418, “Biochemical and pharmacological profiling of the pro-survival protein Bcl-xL” (Bioorg Med Chem Lett, 2011).

Assays:
[1] = biological target: T1, Bcl-2-like protein 1 (Homo sapiens, UniProt Q07817); experiment: Displacement of BODIPY-Bak conjugated peptide from GST-tagged human Wild type Bcl-2-like protein 1 expressed in Escherichia coli BL21 cells at 10 uM after 3 hrs by fluorescence polarization competition assay
[2] = biological target: T2, Bcl-2-like protein 1 (Homo sapiens, UniProt Q07817, L130G); experiment: Displacement of BODIPY-Bak conjugated peptide from GST-tagged human Bcl-2-like protein 1 L130G mutant expressed in Escherichia coli BL21 cells at 10 uM after 3 hrs by fluorescence polarization competition assay
[3] = biological target: T3, Bcl-2-like protein 1 (Homo sapiens, UniProt Q07817, L130V); experiment: Displacement of BODIPY-Bak conjugated peptide from GST-tagged human Bcl-2-like protein 1 L130V mutant expressed in Escherichia coli BL21 cells at 10 uM after 3 hrs by fluorescence polarization competition assay
[4] = biological target: T4, Bcl-2-like protein 2 (Homo sapiens, UniProt Q92843); experiment: Displacement of BODIPY-Bak conjugated peptide from GST-tagged human wild type Bcl-W expressed in Escherichia coli BL21 cells at 10 uM after 3 hrs by fluorescence polarization competition assay
T4 sequence (Q92843 whole entry): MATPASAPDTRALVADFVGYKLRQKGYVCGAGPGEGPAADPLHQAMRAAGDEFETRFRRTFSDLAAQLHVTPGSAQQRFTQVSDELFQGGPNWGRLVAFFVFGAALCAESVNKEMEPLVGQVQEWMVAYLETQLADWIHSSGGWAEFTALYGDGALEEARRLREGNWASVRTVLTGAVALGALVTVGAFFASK

[5] = biological target: T5, Induced myeloid leukemia cell differentiation protein Mcl-1 homolog (Mus musculus, UniProt P97287); experiment: Displacement of BODIPY-Bak conjugated peptide from GST-tagged mouse wild type MCL1 expressed in Escherichia coli BL21 cells at 10 uM after 3 hrs by fluorescence polarization competition assay
[6] = biological target: T5, Induced myeloid leukemia cell differentiation protein Mcl-1 homolog; experiment: Binding affinity for GST-tagged mouse MCL1 expressed in Escherichia coli BL21 cells
[7] = biological target: T6, Bcl-2-related protein A1 (Homo sapiens, UniProt Q16548); experiment: Binding affinity for GST-tagged human BCL2A1 expressed in Escherichia coli BL21 cells
T6 sequence (Q16548 whole entry): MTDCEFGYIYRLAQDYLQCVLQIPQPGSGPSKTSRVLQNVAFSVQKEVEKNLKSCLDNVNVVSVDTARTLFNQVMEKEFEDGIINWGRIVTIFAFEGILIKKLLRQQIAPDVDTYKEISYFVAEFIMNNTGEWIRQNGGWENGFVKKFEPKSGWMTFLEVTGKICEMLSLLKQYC

[8] = Displacement of BODIPY-Bak conjugated peptide from GST-tagged human Bcl-2-like protein 1 delta136T mutant expressed in Escherichia coli BL21 cells at 10 uM after 3 hrs by fluorescence polarization competition assay
[9] = Displacement of BODIPY-Bak conjugated peptide from GST-tagged human Bcl-2-like protein 1 A142Gdelta136T mutant expressed in Escherichia coli BL21 cells at 10 uM after 3 hrs by fluorescence polarization competition assay
[10] = biological target: T1, Bcl-2-like protein 1; experiment: Displacement of BODIPY-Bak conjugated peptide from GST-tagged human Wild type Bcl-2-like protein 1 expressed in Escherichia coli BL21 cells at 40 uM after 3 hrs by fluorescence polarization competition assay
[11] = biological target: Bcl-2-like protein 1 (Homo sapiens, UniProt Q07817, A93V); experiment: Displacement of BODIPY-Bak conjugated peptide from GST-tagged human Bcl-2-like protein 1 A93V mutant expressed in Escherichia coli BL21 cells at 40 uM after 3 hrs by fluorescence polarization competition assay
[12] = biological target: Bcl-2-like protein 1 (Homo sapiens, UniProt Q07817, E96G); experiment: Displacement of BODIPY-Bak conjugated peptide from GST-tagged human Bcl-2-like protein 1 E96G mutant expressed in Escherichia coli BL21 cells at 40 uM after 3 hrs by fluorescence polarization competition assay
[13] = biological target: Bcl-2-like protein 1 (Homo sapiens, UniProt Q07817, F97V); experiment: Displacement of BODIPY-Bak conjugated peptide from GST-tagged human Bcl-2-like protein 1 F97V mutant expressed in Escherichia coli BL21 cells at 40 uM after 3 hrs by fluorescence polarization competition assay
[14] = biological target: Bcl-2-like protein 1 (Homo sapiens, UniProt Q07817, R100E); experiment: Displacement of BODIPY-Bak conjugated peptide from GST-tagged human Bcl-2-like protein 1 R100E mutant expressed in Escherichia coli BL21 cells at 40 uM after 3 hrs by fluorescence polarization competition assay
[15] = biological target: Bcl-2-like protein 1 (Homo sapiens, UniProt Q07817, Y101H); experiment: Displacement of BODIPY-Bak conjugated peptide from GST-tagged human Bcl-2-like protein 1 Y101H mutant expressed in Escherichia coli BL21 cells at 40 uM after 3 hrs by fluorescence polarization competition assay
[16] = biological target: Bcl-2-like protein 1 (Homo sapiens, UniProt Q07817, E129H); experiment: Displacement of BODIPY-Bak conjugated peptide from GST-tagged human Bcl-2-like protein 1 E129H mutant expressed in Escherichia coli BL21 cells at 40 uM after 3 hrs by fluorescence polarization competition assay
[17] = biological target: Bcl-2-like protein 1 (Homo sapiens, UniProt Q07817, L130A); experiment: Displacement of BODIPY-Bak conjugated peptide from GST-tagged human Bcl-2-like protein 1 L130A mutant expressed in Escherichia coli BL21 cells at 40 uM after 3 hrs by fluorescence polarization competition assay
[18] = biological target: T2, Bcl-2-like protein 1; experiment: Displacement of BODIPY-Bak conjugated peptide from GST-tagged human Bcl-2-like protein 1 L130G mutant expressed in Escherichia coli BL21 cells at 40 uM after 3 hrs by fluorescence polarization competition assay
[19] = biological target: T3, Bcl-2-like protein 1; experiment: Displacement of BODIPY-Bak conjugated peptide from GST-tagged human Bcl-2-like protein 1 L130V mutant expressed in Escherichia coli BL21 cells at 40 uM after 3 hrs by fluorescence polarization competition assay
[20] = Displacement of BODIPY-Bak conjugated peptide from GST-tagged human Bcl-2-like protein 1 delta136T mutant expressed in Escherichia coli BL21 cells at 40 uM after 3 hrs by fluorescence polarization competition assay
[21] = biological target: Bcl-2-like protein 1 (Homo sapiens, UniProt Q07817, V141A); experiment: Displacement of BODIPY-Bak conjugated peptide from GST-tagged human Bcl-2-like protein 1 V141A mutant expressed in Escherichia coli BL21 cells at 40 uM after 3 hrs by fluorescence polarization competition assay
[22] = biological target: Bcl-2-like protein 1 (Homo sapiens, UniProt Q07817, A142G); experiment: Displacement of BODIPY-Bak conjugated peptide from GST-tagged human Bcl-2-like protein 1 A142G mutant expressed in Escherichia coli BL21 cells at 40 uM after 3 hrs by fluorescence polarization competition assay
[23] = biological target: Bcl-2-like protein 1 (Homo sapiens, UniProt Q07817, A142T); experiment: Displacement of BODIPY-Bak conjugated peptide from GST-tagged human Bcl-2-like protein 1 A142T mutant expressed in Escherichia coli BL21 cells at 40 uM after 3 hrs by fluorescence polarization competition assay
[24] = biological target: Bcl-2-like protein 1 (Homo sapiens, UniProt Q07817, Y195F); experiment: Displacement of BODIPY-Bak conjugated peptide from GST-tagged human Bcl-2-like protein 1 Y195F mutant expressed in Escherichia coli BL21 cells at 40 uM after 3 hrs by fluorescence polarization competition assay
[25] = biological target: Bcl-2-like protein 1 (Homo sapiens, UniProt Q07817, G196A); experiment: Displacement of BODIPY-Bak conjugated peptide from GST-tagged human Bcl-2-like protein 1 G196A mutant expressed in Escherichia coli BL21 cells at 40 uM after 3 hrs by fluorescence polarization competition assay
[26] = Displacement of BODIPY-Bak conjugated peptide from GST-tagged human Bcl-2-like protein 1 A142G, delta136T mutant expressed in Escherichia coli BL21 cells at 40 uM after 3 hrs by fluorescence polarization competition assay

T1 sequence (Q07817 whole entry): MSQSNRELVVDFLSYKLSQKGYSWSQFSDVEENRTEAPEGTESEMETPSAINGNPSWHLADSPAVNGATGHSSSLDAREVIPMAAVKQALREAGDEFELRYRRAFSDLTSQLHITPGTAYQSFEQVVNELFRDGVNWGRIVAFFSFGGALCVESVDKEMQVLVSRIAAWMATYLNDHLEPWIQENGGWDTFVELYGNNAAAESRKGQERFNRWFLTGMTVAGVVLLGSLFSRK
T5 sequence (P97287 whole entry): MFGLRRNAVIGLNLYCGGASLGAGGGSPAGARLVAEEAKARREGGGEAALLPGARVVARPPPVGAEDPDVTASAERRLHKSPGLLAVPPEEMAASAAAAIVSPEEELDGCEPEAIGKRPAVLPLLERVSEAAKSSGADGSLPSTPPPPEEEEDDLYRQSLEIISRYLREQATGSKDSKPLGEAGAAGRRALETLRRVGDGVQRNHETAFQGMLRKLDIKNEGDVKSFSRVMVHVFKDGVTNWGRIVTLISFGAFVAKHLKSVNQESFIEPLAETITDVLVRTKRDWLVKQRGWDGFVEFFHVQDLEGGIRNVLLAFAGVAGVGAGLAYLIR
T2 sequence (Q07817 whole entry L130G): as the sequence (Q07817 whole entry) above, with L130G counted along it
T3 sequence (Q07817 whole entry L130V): as the sequence (Q07817 whole entry) above, with L130V counted along it
Bcl-2-like protein 1 (Homo sapiens, UniProt Q07817, F97V), sequence (Q07817 whole entry F97V): as the sequence (Q07817 whole entry) above, with F97V counted along it
Bcl-2-like protein 1 (Homo sapiens, UniProt Q07817, E129H), sequence (Q07817 whole entry E129H): as the sequence (Q07817 whole entry) above, with E129H counted along it
Bcl-2-like protein 1 (Homo sapiens, UniProt Q07817, A142T), sequence (Q07817 whole entry A142T): as the sequence (Q07817 whole entry) above, with A142T counted along it
Bcl-2-like protein 1 (Homo sapiens, UniProt Q07817, V141A), sequence (Q07817 whole entry V141A): as the sequence (Q07817 whole entry) above, with V141A counted along it
Bcl-2-like protein 1 (Homo sapiens, UniProt Q07817, Y195F), sequence (Q07817 whole entry Y195F): as the sequence (Q07817 whole entry) above, with Y195F counted along it
Bcl-2-like protein 1 (Homo sapiens, UniProt Q07817, L130A), sequence (Q07817 whole entry L130A): as the sequence (Q07817 whole entry) above, with L130A counted along it
Bcl-2-like protein 1 (Homo sapiens, UniProt Q07817, G196A), sequence (Q07817 whole entry G196A): as the sequence (Q07817 whole entry) above, with G196A counted along it
Bcl-2-like protein 1 (Homo sapiens, UniProt Q07817, A142G), sequence (Q07817 whole entry A142G): as the sequence (Q07817 whole entry) above, with A142G counted along it
Bcl-2-like protein 1 (Homo sapiens, UniProt Q07817, R100E), sequence (Q07817 whole entry R100E): as the sequence (Q07817 whole entry) above, with R100E counted along it
Bcl-2-like protein 1 (Homo sapiens, UniProt Q07817, A93V), sequence (Q07817 whole entry A93V): as the sequence (Q07817 whole entry) above, with A93V counted along it
Bcl-2-like protein 1 (Homo sapiens, UniProt Q07817, E96G), sequence (Q07817 whole entry E96G): as the sequence (Q07817 whole entry) above, with E96G counted along it
Bcl-2-like protein 1 (Homo sapiens, UniProt Q07817, Y101H), sequence (Q07817 whole entry Y101H): as the sequence (Q07817 whole entry) above, with Y101H counted along it

Molecule	Ki [1] [nM]	Ki [2] [nM]	Ki [3] [nM]	Ki [4] [nM]	Ki [5] [nM]	Ki [10] [nM]	Ki [11] [µM]	Ki [12] [µM]	Ki [13] [nM]	Ki [14] [nM]	Ki [15] [nM]	Ki [16] [nM]	Ki [17] [nM]	Ki [18] [nM]	Ki [19] [nM]	Ki [20] [nM]	Ki [21] [nM]	Ki [22] [nM]	Ki [23] [nM]	Ki [24] [nM]	also measured
C[C@@H]1CN(c2ccc(C(=O)NS(=O)(=O)c3ccc(N[C@H](CCN(C)C)CSc4ccccc4)c([N+](=O)[O-])c3)cc2)CCN1Cc1ccccc1C(F)(F)F	1	81	3.7	55	1500																
CC1CN(c2ccc(C(=O)NS(=O)(=O)c3ccc(N[C@H](CCN(C)C)CSc4ccccc4)c([N+](=O)[O-])c3)cc2)CC(C)N1Cc1ccccc1C(F)(F)F (stereo partly drawn)	68	140	96	170	> 10000																
CN(C)CC[C@H](CSc1ccccc1)Nc1ccc(S(=O)(=O)NC(=O)c2ccc(N3CCN(Cc4ccccc4-c4ccc(Cl)cc4)CC3)cc2)cc1[N+](=O)[O-] [ABT 737]																					Kd [6]: > 1000 nM; Kd [7]: > 1000 nM; Ki [8]: 60 nM; Ki [9]: 10 nM
H-PAELEVECATQLRRFGDKLNFRQKLL-OH						> 10000	> 10	> 10	> 10000	> 10000	> 10000	> 10000	> 10000	> 10000	> 10000	> 10000	> 10000	> 10000	> 10000	> 10000	Ki [25]: > 10000 nM; Ki [26]: > 10000 nM
CC[C@H](C)[C@H](NC(=O)[C@H](CCC(=O)O)NC(=O)[C@H](CCCNC(=N)N)NC(=O)[C@H](C)NC(=O)[C@H](Cc1c[nH]c2ccccc12)NC(=O)[C@H](CCC(N)=O)NC(=O)[C@H](CCC(=O)O)NC(=O)[C@@H](N)CCC(=O)O)C(=O)NCC(=O)N[C@@H](C)C(=O)N[C@@H](CCC(N)=O)C(=O)N[C@@H](CC(C)C)C(=O)N[C@@H](CCCNC(=N)N)C(=O)N[C@@H](CCCNC(=N)N)C(=O)N[C@@H](CCSC)C(=O)N[C@@H](C)C(=O)N[C@@H](CC(=O)O)C(=O)N[C@@H](CC(=O)O)C(=O)N[C@@H](CC(C)C)C(=O)N[C@@H](CC(N)=O)C(=O)N[C@@H](C)C(=O)N[C@@H](CCC(N)=O)C(=O)N[C@@H](Cc1ccc(O)cc1)C(=O)N[C@@H](CCC(=O)O)C(=O)N[C@@H](CCCNC(=N)N)C(=O)N[C@@H](CCCNC(=N)N)C(=O)O						1.4	> 10	> 10	89	180	380	170	120	530	29	26	100	9.7	130	8.7	Ki [25]: 8.9 nM; Ki [26]: 75 nM
